Laboratory results: patent US11135219B2, “Methods of treating or preventing Zika virus infection” (priority 2017, dated 2021)

Legend:
DENV = conditions: cited from earlier work
ZIKV = conditions: cited from earlier work
PRVABC59 virus [1] = assay: in vivo; type: in vivo, Balb/C mice
Description: (§1) ZIKV viral RNA was detected using RT-qPCR on a C100 Thermal Cycler and the CFX96 Real-Time system (Bio-Rad). Viral RNA (vRNA) was extracted from culture supernatant using a QlAamp Viral RNA Mini kit (Qiagen) and TaqMan Fast Virus 1-Step Master Mix (Life technologies). ZIKV primers and probe (ZIKF: CCGCTGCCCAACACAAG (SEQ ID NO:1); ZIK-R:[…] (SEQ ID NO:2); PCR Probe: ZIK-P: […] (SEQ ID NO:3)) were used for quantitative RT-PCR (RT-qPCR) with the following parameters: 50° C. 30 min, 95° C. 5 min, (95° C. 30 S, 58° C. 1 min)×40 cycles. RNA standard concentrations were determined based on the back calculation with OD values and molecular weights and were generated through serial dilution with R^2>0.95.
(§2) Balb/C mice were obtained from the Jackson Laboratory (Bar Harbor, Me., USA). After acclimatization for four days, groups of animals (n=6 per group) were injected intraperitoneally with 25 mg/kg body weight dose of TPB diluted in saline or saline alone (no drug control). Following three injections at 12 h intervals, 500 PFU of PRVABC59 virus diluted in PBS was inoculated into each mouse by the subcutaneous (SC) route. Blood was collected by retro-orbital bleeding under anesthesia at days 2, 3, 4, 5, and 6 post-infection. Viral genome copies in the plasma were determined by RT-qPCR.

in vivo = type: in vivo, Balb/C mice; conditions: Balb/C, mouse, in vivo, ip, 25 mg/kg
Description: as §1, §2

PRVABC59 virus [2] = assay: PRVABC59 virus growth in NTERRA cells in the presence of TPB; type: cell-based, Zika virus; conditions: human testicular cell line NTERRA
Viral E protein = assay: Western blot analysis of E protein expression in virus-infected cells; type: cell-based, Zika virus
Description: FIGS. 3A-3C show validation of the antiviral effect of TPB in the μM range. (FIG. 3A) Cells infected with PRVABC59 virus were incubated in the presence of various concentrations of TPB for 96 hours. Culture supernatants were titrated for viral genome copies (FIG. 3A) and infectious virus (FIG. 3B). Data are from three independent experiments with error bars showing±SEM. Statistical analysis was performed using unpaired two-tailed Student's t-test to determine significance of difference. […]. (FIG. 3C) Western blot analysis of E protein expression in virus-infected cells in the presence of various concentrations of TPB. Relative mobility of molecular mass markers are shown on the left.

Zika virus strain MR766 = assay: Inhibition of MR766 virus growth by TPB; type: cell-based; conditions: μM range TPB concentrations tested
Description: (§3) Vero cells were seeded in a 96-well plate with the density of 6000 cells per well. In the initial screening study, the compound (1 μM)-virus (0.1 PFU/cell) mixture in virus growth medium (VGM) [DMEM containing 2% FBS, PS, 20 mM hydroxyethyl piperazine ethane sulfonic acid (HEPES), 1 mM sodium pyruvate, and non-essential amino acids] was added to the cells and incubated for 72 h. In a separate experiment conducted using 12-well plates, the cells were first infected with the virus at 0.1 PFU/cell and following adsorption, the cells were washed twice in PBS and incubated in VGM containing 1 μM concentrations of the drugs. The cell culture media were collected at 72-96 h post-infection and assayed for infectious virus by plaque assay and viral genome copies by quantitative RT-PCR (RT-qPCR). In all subsequent studies, cells in 12-well plates were infected with ZIKV at MOI of 0.1 PFU/cell and following virus adsorption for 1 h at 37° C., VGM containing various concentrations TPB was added to the cells and incubated as above. Clarified supernatants from the infected cells were then used to determine infectious virus or genome copies as above.

[3] = system: Zika virus strain PRVABC59; assay: Inhibition assay: PRVABC59 ZIKV growth in Vero cells (plaque assay, RT-qPCR); type: cell-based
Description: as §3, §1

PRVABC59 virus [4] = assay: PRVABC59 virus growth in HTR-8 cells in the presence of TPB; type: cell-based, Zika virus; conditions: human trophoblast cell line HTR-8
[5] = ATP-based cell viability assay (CellTiter-Glo); conditions: African green monkey (Cercopithecus aethiops), Vero cells, four days, read-out: CC50 (cellular cytotoxicity 50)
Description: A modified ATP based cytopathic effect (CPE) assay was used for this study based on the CPE method for anti-DENV drug development described elsewhere (see, e.g., Che et al., 2009 Int. J. Clin. Exp. Med. 2:363-373). Vero cells (approximately 30,000 per well) were seeded in a black 96-well plate for 24 hours before the experiment. Cell monolayers were treated with various concentrations of the drugs for 4 days at 37° C. The ATP concentration was measured following manufacturer's recommendations using CellTiter-Glo kit from Promega (Madison, Wis.). Luminescence was recorded using a Veritas Microplate Luminometer at 420 nm. The 50% cytotoxic concentration (CC50) was calculated by a non-linear regression analysis of the dose-response curves.

[6] = Pharmacokinetic study of TPB in mice (plasma LC-MS/MS); type: in vivo, Balb/C mice; conditions: 10-12 h post-injection, intraperitoneal, 5 mg/kg or 25 mg/kg
Description: For PK studies, groups of Balb/C mice (n=3) were injected intraperitoneally with doses of 5 mg/kg or 25 mg/kg of body weight of TPB in 5% dextrose, plasma was collected from the animals at various times post-injection and stored at −80° C. until analysis by LC-MS/MS for TPB concentrations. Plasma drug levels were subjected to noncompartmental analysis (WinNonlin ver. 6.4 Certera Inc., Princeton, N.J.). The predicted steady-state levels>500 ng/ml were estimated using a twelve h dosing of 25 mg/kg dose of the compound in mice.
TPB was dissolved in DMSO at 1 mg/ml. Working standard solutions were then prepared in 50% methanol in water from the stock solution. Standards (an eight-point calibration curve) and quality controls (at three levels) were prepared by spiking the working standard solutions to blank mouse plasma. One hundred μl aliquot of plasma was mixed with 25 μl of internal standard spiking solution (rilpivirine 1000 ng/ml in 50% acetonitrile in water), 1.5 ml ethyl acetate was added and vortexed vigorously for 15 min. […]
An Agilent 1200 HPLC system (Agilent Technologies, CA, USA) coupled with AB Sciex API 3200 Q Trap with an electrospray ionization source (Applied Biosystems, Foster City, Calif., USA) was used. The mass transitions m/z 541.2→330.2 and 541.2→212.2 for analyte and m/z 367.2→195.2 for internal standard were monitored. […]

COc1c(C)c2c(c(O)c1C/C=C(\C)CCC(=O)O)C(=O)OC2 [MPA, Mycophenolic acid]
DENV RNA replication (DENV): inhibit DENV RNA replication | Inhibition of infection of cells in vitro by ZIKV (ZIKV; 1 μM): over 99%

CC[C@H](C)[C@H]1O[C@]2(CC[C@@H]1C)C[C@@H]1C[C@@H](C/C=C(\C)[C@@H](O[C@H]3C[C@H](OC)[C@@H](O[C@H]4C[C@H](OC)[C@@H](O)[C@H](C)O4)[C@H](C)O3)[C@@H](C)/C=C/C=C3\CO[C@@H]4[C@H](O)C(C)=C[C@@H](C(=O)O1)[C@]34O)O2 [IVM, Ivermectin]
Inhibition of ZIKV infection (ZIKV; 10 μM): strongly

O=C(NC(=S)Nc1ccc(N2CCN(C(=O)c3cccs3)CC2)cc1)c1sc2ccccc2c1Cl [Compound 1, 3-chloro-N-[({4-[4-(2-thienylcarbonyl)-1-piperazinyl]phenyl}amino)carbonothioyl]-1-benzothiophene-2-carboxamide]
Viral RNA level in plasma, lower than vehicle group (PRVABC59 virus [1]; day 4 post-infection, 25 mg/kg intraperitoneal, 500 PFU ZIKV): ~40 fold | ZIKV viremia (PRVABC59 virus [1]; immunocompetent mice): reduced ZIKV viremia significantly | concentration at 2 days post-infection (in vivo): ~270 ng/mL | PRVABC59 virus growth inhibition in NTERRA (PRVABC59 virus [2]): inhibited the virus growth | Viral E protein synthesis in infected cells (Viral E protein; 0.5 μM TPB): significantly inhibited | Viral E protein synthesis in infected cells (Viral E protein; higher concentrations than 0.5 μM TPB): undetectable | MR766 virus growth inhibition (Zika virus strain MR766): sensitive to inhibition | Genome copy numbers in supernatants, reduction ([3]; 0.5 μM TPB, 96 hours): over 100 fold | Infectious virus in supernatants, reduction ([3]; 0.5 μM TPB, 96 hours): over 100 fold | Virus growth reduction ([3]; 1 μM TPB, 96 hours): over 1000 fold | ZIKV growth inhibition (genome copies in culture supernatants) vs vehicle-only treated cells ([3]; 1 μM compound, Vero cells, 72 hours): > 99% | Infectious virus yield inhibition ([3]; 1 μM compound, Vero cells, 96 hours): at least 1000 fold | ZIKV yield inhibition, side-by-side comparison ([3]; 1 μM, Vero cells, PRVABC59, 96 hours post-infection): over 1000 fold | Selectivity index 50 (SI50, CC50/IC50) ([3]; Vero cells): 206 | IC50 ([3]; Zika virus, Vero, 96 h, Vero cells, PRVABC59, 96 hours post-infection, read-out: IC50 (infectious virus yield, plaque assay)): 0.094 µM | PRVABC59 virus growth inhibition in HTR-8 (PRVABC59 virus [4]): inhibited the virus growth | CC50 at 4 days [5]: 19.4 µM | TPB plasma level [6]: approximately 100 ng/ml
